{"source": "patent US20240277829A1", "about": "“HIV-1 VACCINATION AND SAMT-247 MICROBICIDE TO PREVENT HIV-1 INFECTION” (priority 2021, published 2024)", "key": {"NKG2A^+ NK cells": {"tested_on": "NKG2A^+ NK cells", "assay": "Intracellular cytokines of human blood NK cells using SAMT-247 and PMA stimulation with or without zinc chelator", "format": "cell-based", "conditions": "human PBMCs", "protocol": "Intracellular cytokines of Human blood NK cells using SAMT-247 and PMA stimulation with or without zinc chelator. The levels of NKG2A^+ NK cells were measured in blood of healthy humans. Human PBMCs were thawed and cultured in R10 in the presence or absence of SAMT-247 and/or PMA for 12 hours. Cells were incubated with or without Zinc chelator TPEN (cat. #P4413-100 MG, 5 μM) for 12 h. Subsequently, PBMCs were surface stained with the following: BUV737 anti-CD3 (SP34-2; cat. #741872, 5 μl), Alexa700 anti-CD20 (2H7; cat. #560631, 5 μl), BV786 anti-CD45 (HI30; cat. #563716, 5 μl) from BD Biosciences; APC-H7 anti-CD11b (ICRF44; cat. #47-0118-42, 5 μl) from eBioscience and PE-Cy7 anti-NKG2A (Z199; cat. #B10246, 5 μl) from Beckman coulter for 30 minutes at room temperature. This was followed by permeabilization with FOX3-transcription buffer set (cat. #00-5523-00) from eBioscience according to the manufacture's recommendation and subsequently intracellular staining with the following: BV750 anti-TNF-α (MAB11; cat. #566359, 5 μl), BUV396 anti-IFN-γ (B27; cat. #563563, 5 μl), BV510 anti-GranB (GB11; cat. #563388, 5 μl) from BD Biosciences; and FITC anti-Perforin (pf-344; cat. #3465-7, 5 μl) from MABTECH for 30 minutes at room temperature. Flow cytometry acquisitions were performed on a FACSymphony A5 and examined using FACSDIVA™ software (BD Biosciences)."}, "SIVmac251": {"tested_on": "SIVmac251", "assay": "Weekly intravaginal SIVmac251 challenge of vaccinated and/or SAMT-247 gel treated female macaques", "format": "in vivo, Rhesus macaques", "description": "Animals. Fifty female Indian Rhesus macaques obtained from the free-range breeding colony on Morgan Island, South Carolina, were used in this study. The macaques, aged 2 to 3 years at study initiation, were negative for SIV, simian retrovirus, and STLV, and were MHC typed before being divided into 4 groups: vaccine/microbicide group (20 macaques, 3 A*01 positive, 1 B*17 positive, 1 B*08 positive); vaccine only group (18 macaques, 3 A*01 positive, 1 B*17 positive); microbicide only group (6 macaques, 1 both A*01 positive and B*17 positive) and control group (6 macaques, 1 both A*01 positive and B*17 positive). Data on 37 historical naïve controls intravaginally challenged with the same dose and lot of SIVmac251 were added to the control group to increase statistical power. […]\nImmunization and Challenge. […] Up to 14 challenges were administered until the macaques became SIV positive as assessed by droplet digital PCR. […]\nStatistical analysis. […] Comparisons of differences between groups in the number of challenges before viral acquisition were assessed using the log-rank (Mantel-Cox) test of the discrete-time proportional hazards model. […] Correlation analyses were performed using the non-parametric Spearman rank correlation method with exact permutation and approximate two-tailed P values calculated for the number of pairs≤17 and >17, respectively. […]"}}, "note": "Entries after “also recorded” stand apart in the source; their conditions may differ.", "data": [{"compound": "CC(=O)Sc1ccccc1C(=O)NCCC(N)=O", "note": "[SAMT-247]", "values": [{"measurement": "expression of granzyme, perforin, or cytokines", "setting": "NKG2A^+ NK cells; absence of PMA stimulation", "result": "did not affect"}, {"measurement": "percentage of IFN-γ and TNF-α producing NKG2A^+ cells", "setting": "NKG2A^+ NK cells; presence of PMA", "result": "decreased"}, {"measurement": "percentage of NKG2A^+ NK cells expressing granzyme B and perforin", "setting": "NKG2A^+ NK cells; presence of PMA", "result": "increased"}, {"measurement": "risk of virus acquisition compared to controls", "setting": "SIVmac251; female macaques, up to 14 weekly intravaginal SIVmac251 exposures, SAMT-247 0.8% in HEC gel 4 h before each challenge", "result": "No differences in delayed acquisition; also recorded: did not significantly decrease; also recorded: had no effect"}, {"measurement": "peak virus levels, SAMT-247 only group vs controls", "setting": "SIVmac251; infected animals, peak VL at week 2", "result": "no difference"}]}]}
